# Source: ChEMBL document CHEMBL4004891, “Antioxidant Properties of Novel Dimers Derived from Natural β-Elemene through Inhibiting H2O2-Induced Apoptosis” (ACS Med Chem Lett, 2017)
# Calls of active or inactive are those of the source. The rule behind the calls is not given here.
# Test system: HUVEC
# Assay: Cytoprotective activity against H2O2-induced cell injury in HUVEC assessed as increase in cell viability at 10 uM pretreated for 24 hrs followed by H2O2-stimulation after 2 hrs by MTT assay
# Assay type: functional, cell-based
# Conditions: Homo sapiens
row,Compound,Activity
1,C=C[C@]1(C)CC[C@@H](C(=C)COCc2cn(CCCCCCn3cc(COCC(=C)[C@@H]4CC[C@@](C)(C=C)[C@H](C(=C)C)C4)nn3)nn2)C[C@H]1C(=C)C,Active
2,C=C[C@]1(C)CC[C@@H](C(=C)COC(=O)CC(=O)OCC(=C)[C@@H]2CC[C@@](C)(C=C)[C@H](C(=C)C)C2)C[C@H]1C(=C)C,Active
3,C=C[C@]1(C)CC[C@@H](C(=C)COC(=O)C(=O)OCC(=C)[C@@H]2CC[C@@](C)(C=C)[C@H](C(=C)C)C2)C[C@H]1C(=C)C,Active
4,C=C[C@]1(C)CC[C@@H](C(=C)COC(=O)CCN2CCN(CCC(=O)OCC(=C)[C@@H]3CC[C@@](C)(C=C)[C@H](C(=C)C)C3)CC2)C[C@H]1C(=C)C,Active
5,C=C[C@]1(C)CC[C@@H](C(=C)COC(=O)CCCC(=O)OCC(=C)[C@@H]2CC[C@@](C)(C=C)[C@H](C(=C)C)C2)C[C@H]1C(=C)C,Active
6,C=C[C@]1(C)CC[C@@H](C(=C)COC(=O)CCN(C)CCN(C)CCC(=O)OCC(=C)[C@@H]2CC[C@@](C)(C=C)[C@H](C(=C)C)C2)C[C@H]1C(=C)C,Active
7,C=C[C@]1(C)CC[C@@H](C(=C)COCc2cn(CCCCC(=O)OCC(=C)[C@@H]3CC[C@@](C)(C=C)[C@H](C(=C)C)C3)nn2)C[C@H]1C(=C)C,Active
8,C=C[C@]1(C)CC[C@@H](C(=C)CN2CCN(CC(=C)[C@@H]3CC[C@@](C)(C=C)[C@H](C(=C)C)C3)CC2)C[C@H]1C(=C)C,Active
9,C=C[C@]1(C)CC[C@@H](C(=C)COC(=O)[C@@H]2[C@H](C(=O)OCC(=C)[C@@H]3CC[C@@](C)(C=C)[C@H](C(=C)C)C3)[C@@H]3C=C[C@H]2C3)C[C@H]1C(=C)C,Active
10,C=C[C@]1(C)CC[C@@H](C(=C)COC(=O)CCC(=O)N2CCN(C(=O)CCC(=O)OCC(=C)[C@@H]3CC[C@@](C)(C=C)[C@H](C(=C)C)C3)CC2)C[C@H]1C(=C)C,Active
11,C=C[C@]1(C)CC[C@@H](C(=C)COC(=O)CC[C@H](N)C(=O)OCC(=C)[C@@H]2CC[C@@](C)(C=C)[C@H](C(=C)C)C2)C[C@H]1C(=C)C,Active
12,C=C[C@]1(C)CC[C@@H](C(=C)COC(=O)CCCN2CCN(CCCC(=O)OCC(=C)[C@@H]3CC[C@@](C)(C=C)[C@H](C(=C)C)C3)CC2)C[C@H]1C(=C)C,Active
13,C=C[C@]1(C)CC[C@@H](C(=C)COC(=O)CCCn2cc(C(=O)OCC(=C)[C@@H]3CC[C@@](C)(C=C)[C@H](C(=C)C)C3)nn2)C[C@H]1C(=C)C,Active
14,C=C[C@]1(C)CC[C@@H](C(=C)COCc2cn(CCCCCC(=O)OCC(=C)[C@@H]3CC[C@@](C)(C=C)[C@H](C(=C)C)C3)nn2)C[C@H]1C(=C)C,Active
15,C=C[C@]1(C)CC[C@@H](C(=C)COC(=O)c2ccc(C(=O)OCC(=C)[C@@H]3CC[C@@](C)(C=C)[C@H](C(=C)C)C3)cc2)C[C@H]1C(=C)C,Active
16,C=C[C@]1(C)CC[C@@H](C(=C)COC(=O)CCC(=O)OCC(=C)[C@@H]2CC[C@@](C)(C=C)[C@H](C(=C)C)C2)C[C@H]1C(=C)C,Active
17,C=C[C@]1(C)CC[C@@H](C(=C)COC(=O)c2cccc(C(=O)OCC(=C)[C@@H]3CC[C@@](C)(C=C)[C@H](C(=C)C)C3)c2)C[C@H]1C(=C)C,Active
18,C=C[C@]1(C)CC[C@@H](C(=C)COC(=O)C[C@H](N)C(=O)OCC(=C)[C@@H]2CC[C@@](C)(C=C)[C@H](C(=C)C)C2)C[C@H]1C(=C)C,Active
19,C=C[C@]1(C)CC[C@@H](C(=C)COC(=O)CCCCn2cc(C(=O)OCC(=C)[C@@H]3CC[C@@](C)(C=C)[C@H](C(=C)C)C3)nn2)C[C@H]1C(=C)C,Active
20,C=C[C@]1(C)CC[C@@H](C(=C)CN(C)CCN(C)CC(=C)[C@@H]2CC[C@@](C)(C=C)[C@H](C(=C)C)C2)C[C@H]1C(=C)C,Active
21,C=C[C@]1(C)CC[C@@H](C(=C)COC(=O)CCCCCn2cc(C(=O)OCC(=C)[C@@H]3CC[C@@](C)(C=C)[C@H](C(=C)C)C3)nn2)C[C@H]1C(=C)C,Active
22,C=C[C@]1(C)CC[C@@H](C(=C)COCc2cn(CCCC(=O)OCC(=C)[C@@H]3CC[C@@](C)(C=C)[C@H](C(=C)C)C3)nn2)C[C@H]1C(=C)C,Active
23,C=C[C@]1(C)CC[C@@H](C(=C)COCCCCOCC(=C)[C@@H]2CC[C@@](C)(C=C)[C@H](C(=C)C)C2)C[C@H]1C(=C)C,Active
24,C=C[C@]1(C)CC[C@@H](C(=C)COC(=O)c2cn(CCCCn3cc(C(=O)OCC(=C)[C@@H]4CC[C@@](C)(C=C)[C@H](C(=C)C)C4)nn3)nn2)C[C@H]1C(=C)C,Active
25,C=C[C@]1(C)CC[C@@H](C(=C)COC(=O)c2cn(CCCCCCn3cc(C(=O)OCC(=C)[C@@H]4CC[C@@](C)(C=C)[C@H](C(=C)C)C4)nn3)nn2)C[C@H]1C(=C)C,Active
26,C=C[C@]1(C)CC[C@@H](C(=C)COCc2cn(CCCCn3cc(COCC(=C)[C@@H]4CC[C@@](C)(C=C)[C@H](C(=C)C)C4)nn3)nn2)C[C@H]1C(=C)C,Active
27,C=C[C@]1(C)CC[C@@H](C(=C)COC(=O)COCC(=O)OCC(=C)[C@@H]2CC[C@@](C)(C=C)[C@H](C(=C)C)C2)C[C@H]1C(=C)C,Active
28,C=C[C@]1(C)CC[C@@H](C(=C)COC(=O)c2cccc3cccc(C(=O)OCC(=C)[C@@H]4CC[C@@](C)(C=C)[C@H](C(=C)C)C4)c23)C[C@H]1C(=C)C,Active
29,C=C[C@]1(C)CC[C@@H](C(=C)COC(=O)CCCN(C)CCN(C)CCCC(=O)OCC(=C)[C@@H]2CC[C@@](C)(C=C)[C@H](C(=C)C)C2)C[C@H]1C(=C)C,Active

# Test system: HUVEC
# Assay: Cytoprotective activity against H2O2-induced cell injury in HUVEC assessed as increase in cell viability at 100 uM pretreated for 24 hrs followed by H2O2-stimulation after 2 hrs by MTT assay
# Assay type: functional, cell-based
# Conditions: Homo sapiens
row,Compound,Activity
1,VITAMIN E,Active
